Measurements from patent US20240117005A1, “NOVEL BICYCLIC PEPTIDES” (THE COUNCIL OF THE QUEENSLAND INSTITUTE OF MEDICAL RESEARCH, priority 2021, published 2024).
“Also recorded” adds a separate entry of the source. No end group written: not given here. *: point of attachment. Myristyl = CCCCCCCCCCCCCC*

Biological target: T1, complex of PDL1 (unmodified) and IMPα1 (Mus musculus, UniProt P52293)
T1 construct: endogenous in cells; host or cells: CT26
Test: DUOLINK proximity assay PDL1 (unmodified) and IMPα1, CT26
Format: cell-based
Experimental: To characterize unmodified PDL1 and IMPα1, MDA-MB-231 cells or CT26 cells were treated with vehicle control, DL-2-batch 1, DL-2-batch 2 or linear PDL1. Cells were permeabilised and were probed with the DUOLINK ligation assay. Cover slips were mounted on glass microscope slides with ProLong nucblue glass Antifade reagent (Life Technologies). PDL1 (unmodified) and IMPα1 DUOLINK Digital images were analysed using ImageJ software (ImageJ, NIH, Bethesda, MD, USA) and graphs represent the mean DOT Fluorescent Intensity in the nucleus or the cytoplasm compartments with significant differences calculated as per One-Way ANOVA comparison.
(A) CT26, 4T1 or MDA-MB-231 Cells were treated with inhibitors for 72 hours. […] Absorbance was recorded at 450 nm after 1 hour. […] PDL1Ac and IMPα1 DUOLINK Digital images were analysed using ImageJ software (ImageJ, NIH, Bethesda, MD, USA) and graphs represent the mean DOT Fluorescent Intensity in the nucleus or the cytoplasm compartments with significant differences calculated as per one-way ANOVA comparison. […] PDL1-unmodified and IMPα1 DUOLINK digital images were analysed using ImageJ software (ImageJ, NIH, Bethesda, MD, USA) and graphs represent the mean DOT fluorescent intensity in the nucleus or the cytoplasm compartments with significant differences calculated as per one-way ANOVA comparison. […]

Row | Molecule | complex of PDL1 (unmodified) and IMPα1 (DUOLINK)
1 | CCCCCCCCCCCCCC(=O)NC(C)C(=O)NC1CSCc2cc3cc(c2)CSC[C@H](NC(=O)[C@H](Cc2ccccc2)NC(=O)[C@H](C(C)CC)NC(=O)[C@H](Cc2ccccc2)NC(=O)[C@H]([C@@H](C)O)NC(=O)C(CC(C)C)NC1=O)C(=O)N[C@@H](CCCNC(C)=N)C(=O)N[C@@H](CC(C)C)C(=O)N[C@@H](CCCNC(=N)N)C(=O)N[C@@H](CCCCN)C(=O)NCC(=O)N[C@@H](CCCNC(=N)N)C(=O)NC(C(=O)N[C@@H](CCSC)C(=O)NC(CCSC)C(=O)N[C@@H](CC(=O)O)C(=O)NC(C(=O)N[C@@H](CCCCN)C(=O)NC(CCCCN)C(=O)O)C(C)C)CSC3 (mixture of isomers) [DL-2] | able to abrogate the complex
2 | LTFIFRLRKGRMMDVKK (Myristyl-LTFIFRLRKGRMMDVKK) [PDL1-L1, Myristyl- linear peptide, prototype] | unable to significantly impact the complex; also recorded: no change
